Test results from patent US20250304576A1 (Cancer Research Technology Limited, priority 2022, published 2025).
pKi: −log10 of the molar value.

Legend:
[1] = target: T1, Recombinant IKKα (Homo sapiens, UniProt O15111); test: DELFIA IKKα kinase assay (apparent Ki, Cheng-Prusoff); assay type: biochemical; conditions: DELFIA assay (first line of an example)
T1 construct: purchased Millipore, Dundee, UK
T1 sequence (O15111 1-745): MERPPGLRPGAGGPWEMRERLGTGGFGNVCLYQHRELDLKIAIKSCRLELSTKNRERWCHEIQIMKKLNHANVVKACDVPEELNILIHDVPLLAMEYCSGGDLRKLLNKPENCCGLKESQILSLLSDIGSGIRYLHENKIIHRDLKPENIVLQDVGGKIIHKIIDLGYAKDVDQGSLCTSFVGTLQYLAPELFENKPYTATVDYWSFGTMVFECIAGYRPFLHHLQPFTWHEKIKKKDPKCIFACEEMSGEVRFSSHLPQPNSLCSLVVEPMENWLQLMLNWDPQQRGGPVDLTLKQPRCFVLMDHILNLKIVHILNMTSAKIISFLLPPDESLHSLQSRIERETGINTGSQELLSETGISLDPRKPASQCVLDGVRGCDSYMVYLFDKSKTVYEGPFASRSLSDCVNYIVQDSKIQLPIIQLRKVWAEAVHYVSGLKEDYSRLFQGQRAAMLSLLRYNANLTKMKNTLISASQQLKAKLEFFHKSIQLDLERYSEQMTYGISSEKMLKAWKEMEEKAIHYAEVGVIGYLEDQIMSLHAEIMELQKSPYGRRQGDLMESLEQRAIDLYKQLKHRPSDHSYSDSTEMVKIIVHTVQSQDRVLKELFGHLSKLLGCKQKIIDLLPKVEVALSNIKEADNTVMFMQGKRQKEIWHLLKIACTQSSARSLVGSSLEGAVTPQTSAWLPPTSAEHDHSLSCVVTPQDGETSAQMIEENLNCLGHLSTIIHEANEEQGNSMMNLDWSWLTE
How it was run: (§1)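 Recombinant IKKα or IKKβ (37 nM) with 0.375 μM biotinylated IκB-α (Ser32) peptide and 40 μM ATP in 40 mM Tris-HCl pH 7.5, 20 mM MgCl2, 60 min at 30° C. Phospho-substrate captured on streptavidin and detected by anti-phospho-IκB-α plus europium anti-mouse IgG time-resolved fluorescence; apparent Ki via Cheng-Prusoff.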

[2] = target: T2, Recombinant IKKβ (Homo sapiens, UniProt O14920); test: DELFIA IKKβ kinase assay (apparent Ki, Cheng-Prusoff); assay type: biochemical; conditions: DELFIA assay (first line of an example)
T2 construct: purchased Millipore, Dundee, UK
T2 sequence (O14920 1-756): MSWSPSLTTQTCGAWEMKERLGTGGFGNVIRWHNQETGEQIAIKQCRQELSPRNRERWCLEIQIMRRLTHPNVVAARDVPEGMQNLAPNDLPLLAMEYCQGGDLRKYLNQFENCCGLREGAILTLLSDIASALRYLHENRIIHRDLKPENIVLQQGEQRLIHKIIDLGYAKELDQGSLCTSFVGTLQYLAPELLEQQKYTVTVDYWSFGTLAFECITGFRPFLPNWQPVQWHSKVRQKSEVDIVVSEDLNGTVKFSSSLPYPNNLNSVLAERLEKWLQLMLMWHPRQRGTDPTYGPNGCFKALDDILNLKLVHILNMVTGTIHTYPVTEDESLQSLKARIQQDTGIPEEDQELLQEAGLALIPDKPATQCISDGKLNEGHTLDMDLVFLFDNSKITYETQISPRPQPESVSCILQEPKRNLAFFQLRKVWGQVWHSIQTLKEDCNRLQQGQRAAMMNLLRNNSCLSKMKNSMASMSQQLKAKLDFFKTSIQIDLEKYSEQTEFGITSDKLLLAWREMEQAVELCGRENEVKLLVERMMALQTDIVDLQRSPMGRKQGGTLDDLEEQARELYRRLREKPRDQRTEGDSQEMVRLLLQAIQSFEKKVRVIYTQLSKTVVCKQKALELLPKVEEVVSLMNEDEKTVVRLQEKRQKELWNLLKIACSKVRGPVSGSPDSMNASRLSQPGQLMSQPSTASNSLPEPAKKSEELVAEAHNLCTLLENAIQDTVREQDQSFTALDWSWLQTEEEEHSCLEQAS
How it was run: as §1

| SMILES | pKi [1] | pKi [2] |
| --- | --- | --- |
| CC(C)CCNCc1cc2c(-c3ccc4[nH]nc(N)c4c3)ccnc2[nH]1 [Example 249, 5-(2-((Isopentylamino)methyl)-1H-pyrrolo[2,3-b]pyridine-4-yl)-1H-indazol-3-amine] | 7.25 | 5.83 |
| COCCNCc1cc2c(-c3ccc4[nH]nc(N)c4c3)ccnc2[nH]1 [Example 254, 5-(2-(((2-Methoxyethyl)amino)methyl)-1H-pyrrolo[2,3-b]343yridine-4-yl)-1H-indazol-3-amine] | 7.74 | 6.41 |
| CN(C)CCNCc1cc2c(-c3ccc4[nH]nc(N)c4c3)ccnc2[nH]1 [Example 255, N^1-((4-(3-Amino-1H-indazol-5-yl)-1H-pyrrolo[2,3-b]pyridin-2-yl)methyl)-N2,N2-dimethylethane-1,2-diamine] | 7.52 | 5.79 |
| COCCCNCc1cc2c(-c3ccc4[nH]nc(N)c4c3)ccnc2[nH]1 [Example 256, 5-(2-(((3-methoxypropyl)amino)methyl)-1H-pyrrolo[2,3-b]pyridine-4-yl)-1H-indazol-3-amine] | 7.34 | 5.59 |
| CC(C)OCCCNCc1cc2c(-c3ccc4[nH]nc(N)c4c3)ccnc2[nH]1 [Example 257, 5-(2-(((3-Isopropoxypropyl)amino)methyl)-1H-pyrrolo[2,3-b]346yridine-4-yl)-1H-indazol-3-amine] | 7.40 | 5.65 |
| Nc1n[nH]c2c(Cl)cc(-c3ccnc4[nH]c(CC5CCCCC5)cc34)cc12 [Example 275, 7-Chloro-5-(2-(cyclohexylmethyl)-1H-pyrrolo[2,3-b]pyridin-4-yl)-1H-indazol-3-amine] | 7.43 | 6.42 |
| CC(C)(C)C#Cc1cc(-c2ccnc3[nH]c(CC4CCCCC4)cc23)cc2c(N)n[nH]c12 [Example 278, 5-(2-(Cyclohexylmethyl)-1H-pyrrolo[2,3-b]pyridin-4-yl)-7-(3,3-dimethylbut-1-yn-1-yl)-1H-indazol-3-amine] | 6.42 | < 5.00 |
| CC(C)(C)C#Cc1cc(-c2ccnc3[nH]c(CCN4CCOCC4)cc23)cc2c(N)n[nH]c12 [Example 280, 7-(3,3-Dimethylbut-1-yn-1-yl)-5-(2-(2-morpholinoethyl)-1H-pyrrolo[2,3-b]pyridin-4-yl)-1H-indazol-3-amine] | 7.52 | 6.44 |
| Nc1n[nH]c2c(C#Cc3ccccc3)cc(-c3ccnc4[nH]c(CCN5CCOCC5)cc34)cc12 [Example 281, 5-(2-(2-Morpholinoethyl)-1H-pyrrolo[2,3-b]pyridin-4-yl)-7-(phenylethynyl)-1H-indazol-3-amine] | 7.33 | 6.48 |
| CC(C)(C)C#Cc1cc(-c2ccnc(Nc3ncco3)c2)cc2c(N)n[nH]c12 [Example 282, N-(4-(3-Amino-7-(3,3-dimethylbut-1-yn-1-yl)-1H-indazol-5-yl)pyridin-2-yl)oxazol-2-amine] | 7.72 | 6.23 |
| CC(C)(C)C#Cc1cc(-c2ccnc(NCCC(F)(F)F)c2)cc2c(N)n[nH]c12 [Example 283, 7-(3,3-Dimethylbut-1-yn-1-yl)-5-(2-((3,3,3-trifluoropropyl)amino)pyridin-4-yl)-1H-indazol-3-amine] | 6.67 | < 5.00 |
| COC(=O)Nc1cc(-c2cc(C#CC3CCOCC3)c3[nH]nc(N)c3c2)ccn1 [Example 285] | 7.43 | 6.56 |
| CC(C)(O)C#Cc1cc(-c2ccnc(NC3COC3)c2)cc2c(N)n[nH]c12 [Example 287, 4-(3-Amino-5-(2-(oxetan-3-ylamino)pyridin-4-yl)-1H-indazol-7-yl)-2-methylbut-3-yn-2-ol] | 7.03 | 5.69 |
| Nc1n[nH]c2c(C#CC3CCOCC3)cc(-c3ccnc(NC4COC4)c3)cc12 [Example 288, 5-(2-(Oxetan-3-ylamino)pyridin-4-yl)-7-((tetrahydro-2H-pyran-4-yl)ethynyl)-1H-indazol-3-amine] | 7.62 | 6.30 |
| Nc1n[nH]c2c(C#CC3CC3)cc(-c3ccnc(NC(=O)C4CC4)c3)cc12 [Example 289, N-(4-(3-Amino-7-(cyclopropylethynyl)-1H-indazol-5-yl)pyridin-2-yl)cyclopropanecarboxamide] | 7.38 | 6.24 |
| CC(C)(O)C#Cc1cc(-c2ccnc(NC(=O)C3CC3)c2)cc2c(N)n[nH]c12 [Example 290, N-(4-(3-Amino-7-(3-hydroxy-3-methylbut-1-yn-1-yl)-1H-indazol-5-yl)pyridin-2-yl)cyclopropanecarboxamide] | 7.26 | 6.62 |

Stronger by pKi [1], values ahead:

| pKi [1] | pKi [2] | SMILES |
| --- | --- | --- |
| 8.10 | 7.34 | CN(C)CCCNC(=O)c1cc2c(-c3ccc4[nH]nc(N)c4c3)ccnc2[nH]1 [Example 247, 4-(3-Amino-1H-indazol-5-yl)-N-(3-(dimethylamino)propyl)-1H-pyrrolo[2,3-b]pyridine-2-carboxamide] |
| 8.22 | 7.23 | Nc1n[nH]c2ccc(-c3ccnc4[nH]c(CNc5ccccc5)cc34)cc12 [Example 252, 5-(2-((Phenylamino)methyl)-1H-pyrrolo[2,3-b]340yridine-4-yl)-1H-indazol-3-amine] |
| 8.30 | 6.48 | Nc1n[nH]c2ccc(-c3ccnc4[nH]c(CNc5ccccc5COc5ccccc5)cc34)cc12 [Example 253, 5-(2-(((2-(Benzyloxy)phenyl)amino)methyl)-1H-pyrrolo[2,3-b]342yridine-4-yl)-1H-indazol-3-amine] |
| 8.30 | 6.55 | CC(C)(C)N1CCN(Cc2cc3c(-c4ccc5[nH]nc(N)c5c4)ccnc3[nH]2)CC1 [Example 264, 5-(2-((4-(tert-Butyl)piperazin-1-yl)methyl)-1H-pyrrolo[2,3-b]pyridin-4-yl)-1H-indazol-3-amine] |
| 8.40 | 7.19 | Nc1n[nH]c2ccc(-c3ccnc4[nH]c(CCCNC5CCCCC5)cc34)cc12 [Example 270, 5-(2-(3-(Cyclohexylamino)propyl)-1H-pyrrolo[2,3-b]pyridin-4-yl)-1H-indazol-3-amine] |
| 8.30 | 6.70 | Nc1n[nH]c2ccc(-c3ccnc4[nH]c(CC5CCN(Cc6ccccc6)CC5)cc34)cc12 [Example 273, 5-(2-((1-benzylpiperidin-4-yl)methyl)-1H-pyrrolo[2,3-b]pyridin-4-yl)-1H-indazol-3-amine] |
| 8.10 | 6.90 | Nc1n[nH]c2c(Cl)cc(-c3ccnc4[nH]c(C(=O)NCCN5CCCCC5)cc34)cc12 [Example 274, 4-(3-Amino-7-chloro-1H-indazol-5-yl)-N-(2-(piperidin-1-yl)ethyl)-1H-pyrrolo[2,3-b]pyridine-2-carboxamide] |
| 8.40 | 7.15 | Nc1n[nH]c2c(Cl)cc(-c3ccnc4[nH]c(CN5CCOCC5)cc34)cc12 [Example 276, 7-Chloro-5-(2-(morpholinomethyl)-1H-pyrrolo[2,3-b]pyridin-4-yl)-1H-indazol-3-amine] |
| 9.00 | 7.29 | Nc1n[nH]c2c(Cl)cc(-c3ccnc4[nH]c(CCN5CCOCC5)cc34)cc12 [Example 277, 7-Chloro-5-(2-(2-morpholinoethyl)-1H-pyrrolo[2,3-b]pyridin-4-yl)-1H-indazol-3-amine] |
| 7.92 | 6.41 | Nc1n[nH]c2c(C#CC3CC3)cc(-c3ccnc(NC4COC4)c3)cc12 [Example 284, 7-(Cyclopropylethynyl)-5-(2-(oxetan-3-ylamino)pyridin-4-yl)-1H-indazol-3-amine] |
| 8.05 | 7.36 | CC(C)(O)CCc1cc(-c2ccnc(NC(=O)C3CC3)c2)cc2c(N)n[nH]c12 [Example 292, N-(4-(3-Amino-7-(3-hydroxy-3-methylbutyl)-1H-indazol-5-yl)pyridin-2-yl)cyclopropanecarboxamide] |
